According to PMC6405874, “Development of a novel short 12-meric papiliocin-derived peptide that is effective against Gram-negative sepsis” (Scientific Reports, 2019):
Converted amounts (≈) assume the structure as drawn. No end group written: not given here.

Experiments:
[1] = tested on: MRSA 3126 (CCARM 3126); details: 1% peptone, 2 × 10^6 CFU/mL, 16 h, 37 °C
Description: (§1) The antimicrobial activities of Pap12 peptides were tested against four standard Gram-negative bacteria (E. coli, Pseudomonas aeruginosa, Acinetobacter baumannii, and Salmonella typhimurium), three standard Gram-positive bacteria (Staphylococcus aureus, Bacillus subtilis, and Staphylococcus epidermidis), and five MDR bacteria (MDREC CCARM 1229, MDRPA CCARM 2002, MDRAB CCARM 12035, MDRST CCARM 8007, and MRSA CCARM 3126) using the microbroth dilution method. The relative antibacterial activities were compared based on geometric means of MICs (GM).
(§2) Escherichia coli (KCTC 1682), Pseudomonas aeruginosa (KCTC 2004), Acinetobacter baumannii (KCTC 2508), Salmonella typhimurium (KCTC 1926), Bacillus subtilis (KCTC 3068), Staphylococcus aureus (KCTC 1621), and Staphylococcus epidermidis (KCTC 1917) were purchased from the Korean Collection for Type Cultures, Korea Research Institute of Bioscience & Biotechnology (Taejon, Korea). Clinical isolates of MDR E. coli (MDREC; CCARM 1229), P. aeruginosa (MDRPA; CCARM 2002), A. baumannii (MDRAB; CCARM 12035), S. typhimurium (MDRST; CCARM 8007), and S. aureus (MDRSA; CCARM 3126) were supplied by the Culture Collection of Antibiotic-Resistant Microbe (CCARM) at Seoul Women’s University in Korea. The E. coli K1 strain RS218 (O18:K1:H7) was kindly provided by Dr. Jang-Won Yoon of Kangwon National University (Gangwon-do, Korea).
(§3) Peptides were treated with 2 × 10^6 CFU/mL bacterial suspensions in 1% peptone media for 16 h at 37 °C.

[2] = tested on: B. subtilis (KCTC 3068); details: 1% peptone, 2 × 10^6 CFU/mL, 16 h, 37 °C
Description: as §1, §2, §3

[3] = tested on: P. aeruginosa (KCTC 2004); details: 1% peptone, 2 × 10^6 CFU/mL, 16 h, 37 °C
Description: as §1, §2, §3

[4] = tested on: MDRST 8007 (MDR S. typhimurium CCARM 8007); details: 1% peptone, 2 × 10^6 CFU/mL, 16 h, 37 °C
Description: as §1, §2, §3

[5] = tested on: MDREC 1229 (MDR E. coli CCARM 1229); details: 1% peptone, 2 × 10^6 CFU/mL, 16 h, 37 °C
Description: as §1, §2, §3

[6] = tested on: S. epidermidis (KCTC 1917); details: 1% peptone, 2 × 10^6 CFU/mL, 16 h, 37 °C
Description: as §1, §2, §3

[7] = tested on: S. typhimurium (KCTC 1926); details: 1% peptone, 2 × 10^6 CFU/mL, 16 h, 37 °C
Description: as §1, §2, §3

[8] = tested on: E. coli (KCTC 1682); details: 1% peptone, 2 × 10^6 CFU/mL, 16 h, 37 °C
Description: as §1, §2, §3

[9] = tested on: A. baumannii (KCTC 2508); details: 1% peptone, 2 × 10^6 CFU/mL, 16 h, 37 °C
Description: as §1, §2, §3

[10] = tested on: MDRAB 12035 (MDR A. baumannii CCARM 12035); details: 1% peptone, 2 × 10^6 CFU/mL, 16 h, 37 °C
Description: as §1, §2, §3

[11] = tested on: MDRPA 2002 (MDR P. aeruginosa CCARM 2002); details: 1% peptone, 2 × 10^6 CFU/mL, 16 h, 37 °C
Description: as §1, §2, §3

[12] = tested on: S. aureus (KCTC 1621); details: 1% peptone, 2 × 10^6 CFU/mL, 16 h, 37 °C
Description: as §1, §2, §3

[13] = tested on: Gram-negative bacteria; details: eight Gram-negative strains of Table 2
Description: as §1
(§4) The therapeutic index (TI) was calculated (Table 2) using HC10, the peptide concentration required to induce 10% hemolysis.
as §3

[14] = tested on: Gram-positive bacteria; details: four Gram-positive strains of Table 2
Description: as §1, §4, §3

[15] = tested on: human red blood cells (hRBCs); assay: Hemolysis of human red blood cells
Description: as §4
The toxicity of peptides to human red blood cells (hRBCs) was determined by measuring the peptide-induced release of haem, and percent hemolysis was calculated as described previously. The peptide-induced cytotoxicity of mouse RAW 264.7 macrophages, human keratinocyte HaCaT cells, and HEK-293 cells were determined by 3-(4,5-dimethylthiazol-2-yl)-2,5-diphenyltetrazolium bromide (MTT) assays as previously described.

[16] = tested on: mouse macrophage RAW 264.7 cells; assay: MTT cytotoxicity; format: cell-based; details: MTT, RAW 264.7, HaCaT and HEK-293 cells (Fig. 2B-D)
Excerpt: The toxicities of peptides against mammalian cells were checked by measuring the survival rate of mouse macrophage RAW 264.7 cells, human keratinocyte HaCaT cells, and HEK-293 human embryonic kidney epithelial (HEK-293) cells after treatment with different concentrations of peptides (Fig. 2B–D). […] Since melittin has higher hydrophobicity and a […] amphiphatic moment (µH) than those of Pap12 peptides, as listed in Table 1, its toxicity is much higher than those of Pap12 peptides.

RWKIFKKVVKKG-NH2 [Pap12-3]
Minimal inhibitory concentration (MIC), MRSA 3126 [1]: 16 µM
Minimal inhibitory concentration (MIC), B. subtilis [2]: 16 µM
Minimal inhibitory concentration (MIC), P. aeruginosa [3]: 8 µM
Minimal inhibitory concentration (MIC), MDRST 8007 [4]: 16 µM
Minimal inhibitory concentration (MIC), MDREC 1229 [5]: 16 µM
Minimal inhibitory concentration (MIC), S. epidermidis [6]: 16 µM
Minimal inhibitory concentration (MIC), S. typhimurium [7]: 16 µM
Minimal inhibitory concentration (MIC), E. coli [8]: 8 µM
Minimal inhibitory concentration (MIC), A. baumannii [9]: 16 µM
Minimal inhibitory concentration (MIC), MDRAB 12035 [10]: 16 µM
Minimal inhibitory concentration (MIC), MDRPA 2002 [11]: 32 µM
Minimal inhibitory concentration (MIC), S. aureus [12]: 8 µM
GM, geometric mean of MICs, Gram-negative bacteria [13]: 16 µM
GM, geometric mean of MICs, Gram-positive bacteria [14]: 14 µM
HC10, peptide concentration resulting in 10% hemolysis of fresh human erythrocytes [15]: 200 µM

RWKIFKKAAKKA-NH2 [Pap12-4]
Minimal inhibitory concentration (MIC), MRSA 3126 [1]: 32 µM
Minimal inhibitory concentration (MIC), B. subtilis [2]: 16 µM
Minimal inhibitory concentration (MIC), P. aeruginosa [3]: 8 µM
Minimal inhibitory concentration (MIC), MDRST 8007 [4]: 16 µM
Minimal inhibitory concentration (MIC), MDREC 1229 [5]: 32 µM
Minimal inhibitory concentration (MIC), S. epidermidis [6]: 32 µM
Minimal inhibitory concentration (MIC), S. typhimurium [7]: 32 µM
Minimal inhibitory concentration (MIC), E. coli [8]: 8 µM
Minimal inhibitory concentration (MIC), A. baumannii [9]: 32 µM
Minimal inhibitory concentration (MIC), MDRAB 12035 [10]: 16 µM
Minimal inhibitory concentration (MIC), MDRPA 2002 [11]: 32 µM
Minimal inhibitory concentration (MIC), S. aureus [12]: 8 µM
GM, geometric mean of MICs, Gram-negative bacteria [13]: 22 µM
GM, geometric mean of MICs, Gram-positive bacteria [14]: 22 µM
HC10, peptide concentration resulting in 10% hemolysis of fresh human erythrocytes [15]: 200 µM

RWKIFKKIEKVG-NH2 [Pap12-1]
Minimal inhibitory concentration (MIC), MRSA 3126 [1]: 64 µM
Minimal inhibitory concentration (MIC), B. subtilis [2]: 64 µM
Minimal inhibitory concentration (MIC), P. aeruginosa [3]: 8 µM
Minimal inhibitory concentration (MIC), MDRST 8007 [4]: 32 µM
Minimal inhibitory concentration (MIC), MDREC 1229 [5]: 64 µM
Minimal inhibitory concentration (MIC), S. epidermidis [6]: 64 µM
Minimal inhibitory concentration (MIC), S. typhimurium [7]: 64 µM
Minimal inhibitory concentration (MIC), E. coli [8]: 16 µM
Minimal inhibitory concentration (MIC), A. baumannii [9]: 64 µM
Minimal inhibitory concentration (MIC), MDRAB 12035 [10]: 16 µM
Minimal inhibitory concentration (MIC), MDRPA 2002 [11]: 16 µM
Minimal inhibitory concentration (MIC), S. aureus [12]: 16 µM
GM, geometric mean of MICs, Gram-negative bacteria [13]: 35 µM
GM, geometric mean of MICs, Gram-positive bacteria [14]: 52 µM
HC10, peptide concentration resulting in 10% hemolysis of fresh human erythrocytes [15]: 200 µM

RWKIFKKAAKKG-NH2 [Pap12-2]
Minimal inhibitory concentration (MIC), MRSA 3126 [1]: 16 µM
Minimal inhibitory concentration (MIC), B. subtilis [2]: 16 µM
Minimal inhibitory concentration (MIC), P. aeruginosa [3]: 8 µM
Minimal inhibitory concentration (MIC), MDRST 8007 [4]: 16 µM
Minimal inhibitory concentration (MIC), MDREC 1229 [5]: 32 µM
Minimal inhibitory concentration (MIC), S. epidermidis [6]: 32 µM
Minimal inhibitory concentration (MIC), S. typhimurium [7]: 16 µM
Minimal inhibitory concentration (MIC), E. coli [8]: 8 µM
Minimal inhibitory concentration (MIC), A. baumannii [9]: 32 µM
Minimal inhibitory concentration (MIC), MDRAB 12035 [10]: 16 µM
Minimal inhibitory concentration (MIC), MDRPA 2002 [11]: 16 µM
Minimal inhibitory concentration (MIC), S. aureus [12]: 16 µM
GM, geometric mean of MICs, Gram-negative bacteria [13]: 18 µM
GM, geometric mean of MICs, Gram-positive bacteria [14]: 20 µM
HC10, peptide concentration resulting in 10% hemolysis of fresh human erythrocytes [15]: 200 µM

CC[C@H](C)[C@H](NC(=O)CN)C(=O)NCC(=O)N[C@@H](C)C(=O)N[C@H](C(=O)N[C@@H](CC(C)C)C(=O)N[C@@H](CCCCN)C(=O)N[C@H](C(=O)N[C@@H](CC(C)C)C(=O)N[C@H](C(=O)N[C@H](C(=O)NCC(=O)N[C@@H](CC(C)C)C(=O)N1CCC[C@H]1C(=O)N[C@@H](C)C(=O)N[C@@H](CC(C)C)C(=O)N[C@H](C(=O)N[C@@H](CO)C(=O)N[C@@H](Cc1c[nH]c2ccccc12)C(=O)N[C@H](C(=O)N[C@@H](CCCCN)C(=O)N[C@@H](CCCNC(=N)N)C(=O)N[C@@H](CCCCN)C(=O)N[C@@H](CCCNC(=N)N)C(=O)N[C@@H](CCC(N)=O)C(=O)N[C@@H](CCC(N)=O)C(N)=O)[C@@H](C)CC)[C@@H](C)CC)[C@@H](C)O)[C@@H](C)O)C(C)C)C(C)C [Melittin, reference compound]
Minimal inhibitory concentration (MIC), MRSA 3126 [1]: 2 µM (≈ 5.69 µg/mL)
Minimal inhibitory concentration (MIC), MDRST 8007 [4]: 8 µM (≈ 22.8 µg/mL)
Minimal inhibitory concentration (MIC), MDREC 1229 [5]: 8 µM (≈ 22.8 µg/mL)
Minimal inhibitory concentration (MIC), S. epidermidis [6]: 4 µM (≈ 11.4 µg/mL)
Minimal inhibitory concentration (MIC), A. baumannii [9]: 8 µM (≈ 22.8 µg/mL)
Minimal inhibitory concentration (MIC), MDRAB 12035 [10]: 4 µM (≈ 11.4 µg/mL)
Minimal inhibitory concentration (MIC), MDRPA 2002 [11]: 4 µM (≈ 11.4 µg/mL)
cytotoxicity against mammalian cells (in words) [16]: displayed cytotoxicity at very low concentrations
GM, geometric mean of MICs, Gram-negative bacteria [13]: 6 µM
GM, geometric mean of MICs, Gram-positive bacteria [14]: 3 µM
toxicity against hRBCs (in words) ([15]; hRBCs): highly toxic

RWKIFKKVVKKA-NH2 [Pap12-5]
Minimal inhibitory concentration (MIC), MRSA 3126 [1]: 16 µM
Minimal inhibitory concentration (MIC), B. subtilis [2]: 16 µM
Minimal inhibitory concentration (MIC), P. aeruginosa [3]: 8 µM
Minimal inhibitory concentration (MIC), MDRST 8007 [4]: 16 µM
Minimal inhibitory concentration (MIC), MDREC 1229 [5]: 16 µM
Minimal inhibitory concentration (MIC), S. epidermidis [6]: 16 µM
Minimal inhibitory concentration (MIC), S. typhimurium [7]: 32 µM
Minimal inhibitory concentration (MIC), E. coli [8]: 8 µM
Minimal inhibitory concentration (MIC), A. baumannii [9]: 8 µM
Minimal inhibitory concentration (MIC), MDRAB 12035 [10]: 8 µM
Minimal inhibitory concentration (MIC), MDRPA 2002 [11]: 16 µM
Minimal inhibitory concentration (MIC), S. aureus [12]: 8 µM
GM, geometric mean of MICs, Gram-negative bacteria [13]: 14 µM
GM, geometric mean of MICs, Gram-positive bacteria [14]: 14 µM
HC10, peptide concentration resulting in 10% hemolysis of fresh human erythrocytes [15]: 200 µM
